We go through 15 molecules from ChEMBL document CHEMBL3217658, “Scaffold-hopping from aminoglycosides to small synthetic inhibitors of bacterial protein biosynthesis using a pseudoreceptor model” (Medchemcomm, 2011).

≈ marks a conversion by molar mass, not a printed value. Calls of active or inactive are those of the source. The rule behind the calls is not given here.

Sequence of Transient receptor potential cation channel subfamily V member 1 (Q8NER1 whole entry): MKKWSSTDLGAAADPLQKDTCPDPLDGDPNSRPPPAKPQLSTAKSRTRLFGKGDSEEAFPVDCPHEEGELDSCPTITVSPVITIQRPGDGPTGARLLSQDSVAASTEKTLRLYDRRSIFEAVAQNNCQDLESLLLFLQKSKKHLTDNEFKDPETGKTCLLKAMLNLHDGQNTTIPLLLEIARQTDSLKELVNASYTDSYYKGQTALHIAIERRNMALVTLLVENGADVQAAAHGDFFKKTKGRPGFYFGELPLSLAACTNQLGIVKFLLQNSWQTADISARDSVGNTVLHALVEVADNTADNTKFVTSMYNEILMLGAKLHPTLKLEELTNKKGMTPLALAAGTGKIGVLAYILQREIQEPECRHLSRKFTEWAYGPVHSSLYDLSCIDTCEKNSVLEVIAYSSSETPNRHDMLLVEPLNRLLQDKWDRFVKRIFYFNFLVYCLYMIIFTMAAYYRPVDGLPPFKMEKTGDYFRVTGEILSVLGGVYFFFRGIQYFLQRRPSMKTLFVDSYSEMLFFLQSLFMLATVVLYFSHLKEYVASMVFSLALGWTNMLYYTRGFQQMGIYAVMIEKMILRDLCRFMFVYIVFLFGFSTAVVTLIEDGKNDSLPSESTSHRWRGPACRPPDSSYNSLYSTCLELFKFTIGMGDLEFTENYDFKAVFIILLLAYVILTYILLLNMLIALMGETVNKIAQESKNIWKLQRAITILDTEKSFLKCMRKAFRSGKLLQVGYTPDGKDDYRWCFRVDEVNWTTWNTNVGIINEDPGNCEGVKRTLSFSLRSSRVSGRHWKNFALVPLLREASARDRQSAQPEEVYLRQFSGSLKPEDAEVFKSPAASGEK

For one test, the system named is Escherichia coli. The test is described as follows: Binding affinity to Escherichia coli ribosomal A-site assessed as inhibition of GFP biosynthesis at 500 uM by transcription/translation assay relative to chloramphenicol.
Conditions: not given
As usually defined, the inhibition is the change of the read-out against control, counted positive when it falls. Turning to `COc1cccc(CNCCc2c[nH]c3ccccc23)c1OCc1ccccc1F`, the inhibition was determined as 71%. The same measure, in the same setting: as for `CC(=O)N1[C@H](CO)CS[C@@H]1[C@H](O)[C@@H](O)[C@@H](O)[C@H](O)CO`, the entry is “inactive”; as for `O=c1[nH]c(=O)n2c(c1[N+](=O)[O-])NC(C(O)C(O)C(O)CO)C2O` (configuration not stated), 13%; as for `CNCCCNCc1ccc(OCC(N)=O)c(OC)c1`, “inactive”. Same read-out and setting: then `CC(O)CNCCNCc1cccc2ccccc12` (configuration not stated), with 64%. Turning to `NC(=O)c1ncn([C@H]2C[C@@H](CO)[C@H](O)[C@@H]2O)n1`, the inhibition result was “inactive”. For `Nc1cc(NC2OC(CO)C(O)C(O)C2O)ccc1[N+](=O)[O-]` (configuration not stated), the inhibition amounted to 61%. On to `OCC(O)C(O)C(O)C(O)C1NNC(=S)NN1` (configuration not stated), for which the inhibition entry was “inactive”. For `CC(O)CNCCNCc1ccccc1` (configuration not stated), the inhibition stood at 36%. On the same count and under the same terms, as for `COc1cc(CNCCc2c[nH]c3ccccc23)cc(Cl)c1OCC(N)=O`, the figure is 82%. Regarding `Nc1[nH]c(C2OC(CO)C(O)C2O)nc1C(=O)NCc1ccccc1` (configuration not stated), the inhibition turned out to be 22%.

Another test has as its target Transient receptor potential cation channel subfamily V member 1 (Homo sapiens, UniProt Q8NER1). The test is described as follows: Inhibition of TRPV1-mediated membrane currents in human DRG neurons.
Conditions: not given
As usually defined, the IC50 is the point on the concentration scale where inhibition reaches its midpoint. A lower IC50 goes with greater potency. The molecule `NC[C@@H]1O[C@H](O[C@H]2[C@@H](O)[C@H](O[C@@H]3[C@@H](O)[C@H](N)C[C@H](N)[C@H]3O[C@H]3O[C@H](CN)[C@@H](O)[C@H](O)[C@H]3N)O[C@@H]2CO)[C@H](N)[C@@H](O)[C@@H]1O` [FRAMYCETIN] yielded an IC50 of 400 nM.

Another test has as its system Bacillus subtilis. The test is described as follows: Antibacterial activity against Bacillus subtilis 168 assessed as growth inhibition after 20 hrs by microtiter broth dilution method. The format is functional. The conditions noted are these: subsp. subtilis str. 168, 20 h.
A word on the MIC: it is the lowest concentration that inhibits growth of the organism. On to `COc1cccc(CNCCc2c[nH]c3ccccc23)c1OCc1ccccc1F`, for which the MIC is 125 µM (≈ 50.6 µg/mL). `COc1cc(CNCCc2c[nH]c3ccccc23)ccc1OCc1ccc(F)cc1`: the MIC stood at 63 µM (≈ 25.5 µg/mL). As to `COc1cc(CNCCc2c[nH]c3ccccc23)ccc1OCc1ccc(Cl)nc1`, the MIC was 250 µM (≈ 105 µg/mL). Still for that read-out and setting: as for `COc1cc(CNC(=O)CCCC/C=C/C(C)C)ccc1O` [CAPSAICIN], the figure is 63 µM (≈ 19.2 µg/mL).

For the next test, the system named is Bacillus subtilis. The test is described as follows: Antibacterial activity against Bacillus subtilis 168 assessed as growth inhibition at 0.5 to 500 uM after 20 hrs by microtiter broth dilution method. The conditions noted are these: subsp. subtilis str. 168. The format is functional, organism-based.
For `COc1cc(CNCCc2c[nH]c3ccccc23)cc(Cl)c1OCC(N)=O`, the “growth inhibition (GI)” value is “inactive”.
